In patent US5726195A, “Aminoacyl adenylate mimics as novel antimicrobial and antiparasitic agents” (Cubist Pharmaceuticals, Inc., priority 1996, dated 1998):
Converted amounts (≈) assume the structure as drawn.

Tests used:
[1] = tested on: Streptococcus pyogenes (ATCC 8668); experiment: Mouse protection test against wild type Streptococcus pyogenes; format: in vivo, Streptococcus pyogenes; female CD-1 mice; conditions: 0.08 mg/kg sc, repeated at 4 hours, 7 days
[2] = tested on: multidrug resistant Streptococcus pyogenes (#OTTO 209); experiment: Mouse protection test against multidrug resistant Streptococcus pyogenes; format: in vivo, Streptococcus pyogenes; female CD-1 mice; conditions: for Protective % / Number of Alive: repeated at 4 hours, 7 days; for Number of Alive: of 5 mice
Text: The mouse protection test is an industry standard for measuring the efficacy of a test compound in vivo [for examples of this model see J. J. Clement, et al., Antimicrobial Agents and Chemotherapy, 38 (5), 1071-1078, (1994)]. As exemplified below, this test was used to show the in vivo efficacy of the compounds of the present invention against bacteria.
The in vivo activity of compound X against multidrug resistant bacteria was established by infecting female CD-1 mice (Charles River Lab, Massachusettes) weighing 20-24 g intraperitoneally with multidrug resistant Streptococcus pyogenes inoculum. The inoculum was prepared from multidrug resistant Streptococcus pyogenes (resistant to erythromycin, tetracycline, and chloramphenicol, #OTTO 209 obtained from Dr. Pentti Huovinen, National Public Health Institute, Finland) which was cultured in brain heart infusion broth (Baltimore Biological Laboratories, Maryland) at 37° C. for 2 hr, and then 0.1 ml of the culture was diluted with the medium to 1.0 ml for reading its OD at 600 nm (0.12). The turbidity of a 0.5 McFarland standard is equivalent to OD600 0.1, or 10^8 cfu/ml. Then, 4×10^8 cfu of the bacteria (333 μl was added to 20 ml of phosphate buffered saline (Sigma P-0261 ) containing 10 % hog gastric mucin (Sigma M-2378). All animals were injected with 0.5 ml of the inoculum, equivalent to 10^7 cfu/mouse which is the dose causing ~100% death of the animals without treatment.
Compound X (60 mg) was dissolved in 6.0 ml of 0.05M Tris.HCl (pH 8.8) to give a solution of 10 mg/ml. This solution was serially diluted two times with 0.05M Tris.HCl by 5-fold (1.0 ml to 5.0 ml) to give 2 and 0.4 mg/ml solutions. The known antibiotic vancomycin HCl (Sigma V-2002, in normal saline, 1 mg/ml, pH 6.0-7.0) was used as a positive control. All the solutions were filtered with 0.2 μm Nalgene syringe filter. Immediately after the bacterial inoculation, group 1 animals were subcutaneously (sc) injected with 0.05M Tris.HCl (no antibiotic) and groups 2 to 4 were given compound X sc at 4, 20 and 100 mg/kg, respectively. Group 5 animals received vancomycin sc at 10 mg/kg. These injections were repeated once at 4 hours after the inoculation for the respective groups. The injection volume at each time was 10 ml per kilogram of body weight. The 50% protective dose (PD50) is calculated on the basis of the number of mice surviving 7 days after inoculation.

C. albicans ATCC 10231 = experiment: Whole cell antimicrobial screen, MIC; format: cell-based; conditions: Candida albicans, ATCC10231
Outline: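 Optical density after overnight growth at 30° C.-37° C. defined the MIC as the lowest inhibitory compound concentration. Test range was 0.1 μg/mL-500 μg/mL in 2-fold steps against 5×10^4 cells.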

B. subtilis ATCC 6633 = experiment: Whole cell antimicrobial screen, MIC; format: cell-based; conditions: Bacillus subtilis, ATCC6633
Outline: (§1)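 Broth microdilution following NCCLS: two-fold dilutions (final 0.1–500 μg/mL, ≤1% DMSO) with 5×10^4 cells in 100 μL of appropriate medium, e.g. Mueller-Hinton broth. After overnight incubation at 30–37 °C, growth was read by optical density, and MIC is the lowest concentration inhibiting growth.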

[3] = tested on: S. saprophyticus ATCC 35552; experiment: Whole cell antimicrobial screen, MIC; format: cell-based; conditions: Staphylococcus saprophyticus, ATCC35552
Outline: as §1

E. faecalis ATCC 33011 = experiment: Whole cell antimicrobial screen, MIC; format: cell-based; conditions: Enterococcus faecalis, ATCC33011
Outline: as §1

E. faecium ATCC 6569 = experiment: Whole cell antimicrobial screen, MIC; format: cell-based; conditions: Enterococcus faecium, ATCC6569
Outline: as §1

K. pneumonia ATCC 4352 = experiment: Whole cell antimicrobial screen, MIC; format: cell-based; conditions: Klebsiella pneumoniae, ATCC4352
Outline: as §1

S. aureus ATCC 14154 = experiment: Whole cell antimicrobial screen, MIC; format: cell-based; conditions: Staphylococcus aureus, ATCC14154
Outline: as §1

S. aureus ATCC 6538P = experiment: Whole cell antimicrobial screen, MIC; format: cell-based; conditions: Staphylococcus aureus, ATCC6538P
Outline: as §1

S. pneumonia ATCC 49619 = experiment: Whole cell antimicrobial screen, MIC; format: cell-based
Outline: as §1

[4] = tested on: S. epidermidis ATCC 33501; experiment: Whole cell antimicrobial screen, MIC; format: cell-based; conditions: Staphylococcus epidermidis, ATCC33501
Outline: as §1

S. pyogenes ATCC 8668 = experiment: Whole cell antimicrobial screen, MIC; format: cell-based; conditions: Streptococcus pyogenes, ATCC8668
Outline: as §1

[5] = tested on: M. catarrhalis ATCC 25240; experiment: Whole cell antimicrobial screen, MIC; format: cell-based; conditions: Moraxella catarrhalis, ATCC25240
Outline: as §1

H. influenza ATCC 49247 = experiment: Whole cell antimicrobial screen, MIC; format: cell-based
Outline: as §1

CC[C@H](C)[C@H](N)C(=O)NS(=O)(=O)OC[C@H]1O[C@@H](CCn2nnc(-c3ccc(Oc4ccccc4)cc3)n2)[C@H](O)[C@@H]1O [Compound X, [S-(R*,R*)]-3,6-anhydro-1,2-dideoxy-1-[5-(4-phenoxyphenyl)-2H-tetrazol-2-yl]-D-allo-heptitol 7-(2-amino-3-methyl-1-oxopentyl)sulfamate]
Protective % [1]: 0% | Number of Alive ([1]; of 5 mice): 0 | Protective % ([2]; 4 mg/kg sc): 0% | Number of Alive ([2]; 4 mg/kg sc): 0 | Protective % ([2]; 20 mg/kg sc): 80% | Number of Alive ([2]; 20 mg/kg sc): 4 | Protective % ([2]; 100 mg/kg sc): 100% | Number of Alive ([2]; 100 mg/kg sc): 5 | ED50 ([2]; Streptococcus pyogenes, 168 h, sc, mice surviving 7 days after inoculation, multidrug resistant, read-out: PD50 (50% protective dose)): 16.5 mg/kg | MIC (C. albicans ATCC 10231): > 500 µg/mL | MIC (B. subtilis ATCC 6633): 10 µg/mL (≈ 16.9 µM) | MIC [3]: 5 µg/mL (≈ 8.47 µM) | MIC (E. faecalis ATCC 33011): 300 µg/mL (≈ 508 µM) | MIC (E. faecium ATCC 6569): 10 µg/mL (≈ 16.9 µM) | MIC (K. pneumonia ATCC 4352): 50 µg/mL (≈ 84.7 µM) | MIC (S. aureus ATCC 14154): 25 µg/mL (≈ 42.3 µM) | MIC (S. aureus ATCC 6538P): 10 µg/mL (≈ 16.9 µM) | MIC (S. pneumonia ATCC 49619): 25 µg/mL (≈ 42.3 µM) | MIC [4]: 2 µg/mL (≈ 3.39 µM) | MIC (S. pyogenes ATCC 8668): 0.5 µg/mL (≈ 0.847 µM) | MIC [5]: 25 µg/mL (≈ 42.3 µM) | MIC (H. influenza ATCC 49247): 100 µg/mL (≈ 169 µM)
